PMC11387175, “Model informed dose regimen optimizing in development of leritrelvir for the treatment of mild or moderate COVID-19” (Frontiers in Pharmacology, 2024)

Assays:
Omicron variant = experiment: Target concentration needed to achieve EC90; type: cell-based, SARS-CoV-2
[1] = test system: Omicron XBB.1.9.1 variant; design: method as in Chen et al., 2024; settings: ref Chen et al., 2024, read-out: concentration for 90% of maximal effect (EC90); cited from earlier work

O=C(NC1CCCC1)C(=O)[C@H](C[C@@H]1CCNC1=O)NC(=O)[C@@H]1[C@H]2CCC[C@H]2CN1C(=O)[C@@H](NC(=O)C(F)(F)F)C1CCCCC1 [leritrelvir]
concentration needed to achieve EC90 (Omicron variant): 0.2097 µg/mL | EC90 [1]: 415 nM
